# Assays:
# [1] = Metabolic stability in human liver microsomes assessed as clearance at 1 uM measured upto 60 mins in presence of NADPH by measuring protein; format: ADME, Microsome; conditions: 1 h
# [2] = test system: DOHH-2; test: Antiproliferative activity against human DOHH-2 cells assessed as cell growth inhibition measured after 72 hrs by MTT assay; format: functional, cell-based; conditions: DOHH-2, 72 h
# [3] = Metabolic stability in human liver microsomes assessed as compound remaining at 1 uM measured upto 60 mins in presence of NADPH; format: ADME, Microsome; conditions: read-out: Stability
# [4] = test system: SU-DHL-6; test: Antiproliferative activity against human SU-DHL-6 cells assessed as cell growth inhibition measured after 72 hrs by MTT assay; format: functional, cell-based; conditions: SU-DHL-6, 72 h
# [5] = biological target: T1, Phosphatidylinositol 4,5-bisphosphate 3-kinase catalytic subunit delta isoform (Homo sapiens) (UniProt O00329); test: Inhibition of N-terminal His6-tagged recombinant full length human PI3Kdelta expressed in baculovirus infected Sf21 insect cells at 0.1 uM by HTRF assay relative to control
# T1 sequence (whole entry): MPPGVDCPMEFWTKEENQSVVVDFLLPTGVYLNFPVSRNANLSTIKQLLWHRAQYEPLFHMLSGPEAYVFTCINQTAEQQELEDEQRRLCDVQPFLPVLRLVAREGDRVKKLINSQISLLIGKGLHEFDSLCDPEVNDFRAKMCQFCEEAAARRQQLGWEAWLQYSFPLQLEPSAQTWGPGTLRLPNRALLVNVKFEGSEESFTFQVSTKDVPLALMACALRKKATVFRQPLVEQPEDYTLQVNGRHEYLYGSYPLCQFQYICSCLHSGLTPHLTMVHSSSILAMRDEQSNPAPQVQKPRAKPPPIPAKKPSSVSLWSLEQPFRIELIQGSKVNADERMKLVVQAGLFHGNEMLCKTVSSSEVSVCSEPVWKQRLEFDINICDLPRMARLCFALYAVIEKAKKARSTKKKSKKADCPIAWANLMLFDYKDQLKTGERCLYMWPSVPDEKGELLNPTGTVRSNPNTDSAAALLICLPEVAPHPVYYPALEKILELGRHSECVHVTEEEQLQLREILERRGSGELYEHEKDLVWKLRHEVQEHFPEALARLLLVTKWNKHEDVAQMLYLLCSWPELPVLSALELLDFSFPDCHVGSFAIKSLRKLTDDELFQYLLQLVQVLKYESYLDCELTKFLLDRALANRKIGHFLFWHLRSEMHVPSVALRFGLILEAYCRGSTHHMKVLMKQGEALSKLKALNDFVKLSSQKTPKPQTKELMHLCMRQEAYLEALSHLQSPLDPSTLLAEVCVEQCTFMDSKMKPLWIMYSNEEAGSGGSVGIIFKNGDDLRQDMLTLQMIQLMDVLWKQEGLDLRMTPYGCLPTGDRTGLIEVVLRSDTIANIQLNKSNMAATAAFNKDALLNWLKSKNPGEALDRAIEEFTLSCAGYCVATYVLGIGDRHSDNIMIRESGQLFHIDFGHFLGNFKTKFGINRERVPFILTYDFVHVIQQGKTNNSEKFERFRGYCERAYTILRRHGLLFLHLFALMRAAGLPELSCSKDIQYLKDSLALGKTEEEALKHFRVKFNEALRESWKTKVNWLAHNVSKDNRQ
# [6] = Metabolic stability in human liver microsomes assessed as half life at 1 uM measured upto 60 mins in presence of NADPH; format: ADME, Microsome
# [7] = biological target: T2, Phosphatidylinositol 4,5-bisphosphate 3-kinase catalytic subunit gamma isoform (Homo sapiens, UniProt P48736); test: Inhibition of N-terminal His6-tagged recombinant full length human PI3Kgamma expressed in baculovirus infected Sf21 insect cells at 0.1 uM by HTRF assay relative to control
# T2 sequence (P48736 whole entry, looked up, canonical isoform): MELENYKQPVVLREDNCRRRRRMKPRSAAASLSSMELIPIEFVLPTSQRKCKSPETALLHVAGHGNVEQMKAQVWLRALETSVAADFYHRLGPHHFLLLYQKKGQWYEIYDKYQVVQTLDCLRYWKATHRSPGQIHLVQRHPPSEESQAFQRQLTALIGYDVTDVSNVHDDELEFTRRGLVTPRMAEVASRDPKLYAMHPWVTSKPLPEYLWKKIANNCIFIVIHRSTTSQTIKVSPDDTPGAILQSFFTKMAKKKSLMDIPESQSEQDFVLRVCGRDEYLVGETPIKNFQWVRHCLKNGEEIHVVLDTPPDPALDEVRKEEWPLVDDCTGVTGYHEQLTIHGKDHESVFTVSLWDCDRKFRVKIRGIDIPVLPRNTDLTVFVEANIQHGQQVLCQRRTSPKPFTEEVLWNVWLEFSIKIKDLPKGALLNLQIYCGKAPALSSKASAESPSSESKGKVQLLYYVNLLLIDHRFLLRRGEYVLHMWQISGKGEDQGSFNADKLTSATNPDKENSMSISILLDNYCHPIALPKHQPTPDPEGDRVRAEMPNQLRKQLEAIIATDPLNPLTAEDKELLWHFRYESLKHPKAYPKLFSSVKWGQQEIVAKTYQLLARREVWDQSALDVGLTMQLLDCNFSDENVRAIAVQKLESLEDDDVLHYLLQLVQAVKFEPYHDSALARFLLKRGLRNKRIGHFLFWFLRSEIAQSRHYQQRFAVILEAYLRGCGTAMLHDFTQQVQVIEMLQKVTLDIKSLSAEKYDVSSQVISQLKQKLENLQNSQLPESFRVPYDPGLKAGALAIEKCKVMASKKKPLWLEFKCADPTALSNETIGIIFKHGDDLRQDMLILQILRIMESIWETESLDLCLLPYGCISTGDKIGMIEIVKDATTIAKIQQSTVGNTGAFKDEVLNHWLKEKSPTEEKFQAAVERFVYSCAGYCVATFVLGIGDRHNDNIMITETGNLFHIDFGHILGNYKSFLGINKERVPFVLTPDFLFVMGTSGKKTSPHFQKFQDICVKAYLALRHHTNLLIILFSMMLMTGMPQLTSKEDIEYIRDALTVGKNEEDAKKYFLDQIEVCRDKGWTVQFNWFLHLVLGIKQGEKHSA
# [8] = biological target: Phosphatidylinositol 4,5-bisphosphate 3-kinase catalytic subunit alpha isoform (Homo sapiens, UniProt P42336); test: Inhibition of N-terminal His6-tagged recombinant full length human PI3Kalpha expressed in baculovirus infected Sf21 insect cells at 1 uM by HTRF assay relative to control
# Phosphatidylinositol 4,5-bisphosphate 3-kinase catalytic subunit alpha isoform, sequence (P42336 whole entry, canonical isoform): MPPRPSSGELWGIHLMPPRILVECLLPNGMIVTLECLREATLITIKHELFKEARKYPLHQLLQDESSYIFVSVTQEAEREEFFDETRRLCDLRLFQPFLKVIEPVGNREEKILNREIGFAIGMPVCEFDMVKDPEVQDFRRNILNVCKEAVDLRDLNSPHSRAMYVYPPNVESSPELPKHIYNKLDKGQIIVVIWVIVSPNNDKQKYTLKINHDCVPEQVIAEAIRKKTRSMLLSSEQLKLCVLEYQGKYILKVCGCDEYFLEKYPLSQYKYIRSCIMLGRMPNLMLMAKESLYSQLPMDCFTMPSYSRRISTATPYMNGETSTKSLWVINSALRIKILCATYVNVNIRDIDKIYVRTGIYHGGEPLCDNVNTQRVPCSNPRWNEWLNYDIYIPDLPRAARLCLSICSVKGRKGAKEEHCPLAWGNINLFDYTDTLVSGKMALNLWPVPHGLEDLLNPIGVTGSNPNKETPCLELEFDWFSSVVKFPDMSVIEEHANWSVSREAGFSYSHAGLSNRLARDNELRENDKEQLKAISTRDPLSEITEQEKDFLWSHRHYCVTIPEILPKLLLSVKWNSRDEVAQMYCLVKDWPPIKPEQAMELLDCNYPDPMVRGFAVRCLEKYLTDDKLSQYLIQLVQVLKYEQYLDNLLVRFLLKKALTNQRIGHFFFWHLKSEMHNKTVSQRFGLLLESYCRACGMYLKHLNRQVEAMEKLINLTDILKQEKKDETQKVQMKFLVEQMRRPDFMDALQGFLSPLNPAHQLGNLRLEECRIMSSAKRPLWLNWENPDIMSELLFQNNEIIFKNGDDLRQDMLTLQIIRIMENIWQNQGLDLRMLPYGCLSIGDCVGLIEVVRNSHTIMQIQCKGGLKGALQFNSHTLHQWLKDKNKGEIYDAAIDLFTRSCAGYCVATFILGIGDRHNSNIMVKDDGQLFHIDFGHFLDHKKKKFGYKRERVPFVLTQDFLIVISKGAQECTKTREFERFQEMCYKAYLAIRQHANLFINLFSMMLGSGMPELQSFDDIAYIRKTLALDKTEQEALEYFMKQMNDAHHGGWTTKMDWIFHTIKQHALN
# [9] = test system: SUD4; test: Antiproliferative activity against human SU-DHL-4 cells assessed as cell growth inhibition measured after 72 hrs by MTT assay; format: functional, cell-based; conditions: SU-DHL-4, 72 h
# [10] = biological target: Phosphatidylinositol 4,5-bisphosphate 3-kinase catalytic subunit beta isoform (Homo sapiens, UniProt P42338); test: Inhibition of N-terminal His6-tagged recombinant full length human PI3Kbeta expressed in baculovirus infected Sf21 insect cells at 1 uM by HTRF assay relative to control
# Phosphatidylinositol 4,5-bisphosphate 3-kinase catalytic subunit beta isoform, sequence (P42338 whole entry, looked up, canonical isoform): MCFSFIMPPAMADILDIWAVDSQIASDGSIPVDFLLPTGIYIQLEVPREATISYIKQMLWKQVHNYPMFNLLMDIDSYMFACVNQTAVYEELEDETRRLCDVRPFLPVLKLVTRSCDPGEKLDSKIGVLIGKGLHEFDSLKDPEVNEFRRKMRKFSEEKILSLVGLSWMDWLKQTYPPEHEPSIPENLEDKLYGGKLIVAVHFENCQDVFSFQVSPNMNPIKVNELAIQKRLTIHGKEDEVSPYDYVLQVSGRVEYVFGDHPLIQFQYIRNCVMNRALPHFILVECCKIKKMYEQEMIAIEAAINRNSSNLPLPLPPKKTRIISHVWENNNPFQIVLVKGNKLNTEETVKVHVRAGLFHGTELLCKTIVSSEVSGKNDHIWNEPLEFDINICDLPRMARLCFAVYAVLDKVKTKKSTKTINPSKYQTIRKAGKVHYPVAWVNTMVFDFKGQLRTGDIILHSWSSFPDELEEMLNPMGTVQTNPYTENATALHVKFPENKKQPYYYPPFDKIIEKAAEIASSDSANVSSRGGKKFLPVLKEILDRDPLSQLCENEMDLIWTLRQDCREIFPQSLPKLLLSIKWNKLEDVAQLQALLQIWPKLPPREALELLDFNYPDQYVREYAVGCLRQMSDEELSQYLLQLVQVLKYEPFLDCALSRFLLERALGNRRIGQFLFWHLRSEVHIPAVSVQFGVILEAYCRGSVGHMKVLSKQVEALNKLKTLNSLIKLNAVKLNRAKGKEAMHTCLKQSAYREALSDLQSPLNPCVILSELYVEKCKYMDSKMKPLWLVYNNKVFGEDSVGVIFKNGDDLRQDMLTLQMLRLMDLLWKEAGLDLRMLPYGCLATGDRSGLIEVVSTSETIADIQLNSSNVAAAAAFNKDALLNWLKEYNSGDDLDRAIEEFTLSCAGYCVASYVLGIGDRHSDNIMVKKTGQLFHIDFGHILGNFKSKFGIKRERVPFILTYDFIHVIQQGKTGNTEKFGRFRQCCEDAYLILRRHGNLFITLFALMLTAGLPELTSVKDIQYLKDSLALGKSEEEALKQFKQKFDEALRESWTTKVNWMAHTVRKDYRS
# [11] = biological target: T2, Phosphatidylinositol 4,5-bisphosphate 3-kinase catalytic subunit gamma isoform; test: Inhibition of N-terminal His6-tagged recombinant full length human PI3Kgamma expressed in baculovirus infected Sf21 insect cells at 1 uM by HTRF assay relative to control
# [12] = biological target: T1, Phosphatidylinositol 4,5-bisphosphate 3-kinase catalytic subunit delta isoform (Homo sapiens); test: Inhibition of N-terminal His6-tagged recombinant full length human PI3Kdelta expressed in baculovirus infected Sf21 insect cells at 1 uM by HTRF assay relative to control
CLH [1],"remaining at 1 h, 1 µM [3]",IC50 [4],inhibition [5],half-life at 1 µM [6],inhibition [7],inhibition [8],inhibition [10],inhibition [11],inhibition [12],Structure (SMILES),IC50 [2],IC50 [9]
17.4 mL/min/g,60%,0.53 µM,-4%,1.33 h,-10%,1%,6%,,,CCn1cc(-c2cccc3nc([C@@H]4CC[C@H](C)N4c4nc(N)nc(N)c4C#N)n(-c4ccccc4)c(=O)c23)cn1,0.74 µM,0.29 µM
37.4 mL/min/g,32.6%,0.28 µM,,0.618 h,25%,-7%,19%,,,C[C@H]1CC[C@@H](c2nc3cccc(-c4cccnc4)c3c(=O)n2-c2ccccc2)N1c1nc(N)nc(N)c1C#N,1.01 µM,0.12 µM
17.8 mL/min/g,45%,0.26 µM,0%,1.3 h,-2%,23%,2%,,,C[C@H]1CC[C@@H](c2nc3cccc(-c4cnn(C5CC5)c4)c3c(=O)n2-c2ccccc2)N1c1nc(N)nc(N)c1C#N,0.39 µM,0.22 µM
,,3.15 µM,76%,,97%,88%,92%,96%,23%,C[C@H]1CC[C@@H](c2nc3cccc(Cl)c3c(=O)n2-c2ccccc2)N1c1cc(Cl)nc(N)n1,2.92 µM,2.9 µM
,,0.84 µM,12%,,51%,90%,68%,2%,7%,C[C@H]1CC[C@@H](c2nc3cccc(Cl)c3c(=O)n2-c2cc(F)cc(F)c2)N1c1nc(N)nc2[nH]cnc12,2.21 µM,0.77 µM
,,1.53 µM,93%,,99%,96%,105%,96%,75%,Cc1cc(N2[C@@H](C)CC[C@H]2c2nc3cccc(Cl)c3c(=O)n2-c2ccccc2)nc(N)n1,1.96 µM,1.12 µM
,,0.49 µM,27%,,76%,49%,-1%,34%,13%,C[C@H]1CC[C@@H](c2nc3cccc(Cl)c3c(=O)n2-c2ccccc2)N1c1nc(F)nc2[nH]cnc12,0.91 µM,0.73 µM
,,1.8 µM,74%,,88%,82%,84%,41%,37%,C[C@H]1CC[C@@H](c2nc3cccc(Cl)c3c(=O)n2-c2ccccc2)N1c1nc(N)nc2[nH]ccc12,3.59 µM,4.93 µM
,,2.75 µM,34%,,85%,79%,84%,49%,18%,N#Cc1c(N)nc(N)nc1N1[C@H](c2nc3cccc(Cl)c3c(=O)n2-c2cc(F)cc(F)c2)C[C@@H]2CCCC[C@@H]21,3.54 µM,1.83 µM
28.4 mL/min/g,46.1%,0.43 µM,-6%,0.813 h,-8%,,-3%,,,CCOc1cncc(-c2cccc3nc([C@@H]4CC[C@H](C)N4c4nc(N)nc(N)c4C#N)n(-c4ccccc4)c(=O)c23)c1,0.21 µM,0.11 µM
20.8 mL/min/g,59.9%,0.19 µM,,1.11 h,12%,13%,19%,,,COc1cncc(-c2cccc3nc([C@@H]4CC[C@H](C)N4c4nc(N)nc(N)c4C#N)n(-c4ccccc4)c(=O)c23)c1,0.29 µM,0.12 µM
,,0.41 µM,15%,,39%,89%,54%,0%,7%,C[C@H]1CC[C@@H](c2nc3cccc(Cl)c3c(=O)n2-c2cccnc2)N1c1nc(N)nc2[nH]cnc12,0.65 µM,0.51 µM
,,1.84 µM,88%,,99%,78%,106%,100%,11%,C[C@H]1CC[C@@H](c2nc3cccc(Cl)c3c(=O)n2-c2ccccc2)N1c1ccnc(N)n1,3.97 µM,1.2 µM
29.6 mL/min/g,40.4%,0.32 µM,1%,0.78 h,10%,12%,28%,,,CC(C)n1cc(-c2cccc3nc([C@@H]4CC[C@H](C)N4c4nc(N)nc(N)c4C#N)n(-c4ccccc4)c(=O)c23)cn1,0.54 µM,0.21 µM
16.8 mL/min/g,51.2%,0.39 µM,-2%,1.38 h,2%,5%,13%,,,CCCn1cc(-c2cccc3nc([C@@H]4CC[C@H](C)N4c4nc(N)nc(N)c4C#N)n(-c4ccccc4)c(=O)c23)cn1,0.69 µM,0.33 µM
,,1.48 µM,82%,,93%,84%,98%,75%,23%,N#Cc1c(N)nc(N)nc1N1[C@H](c2nc3cccc(F)c3c(=O)n2-c2cc(F)cc(F)c2)C[C@@H]2CCCC[C@@H]21,2.47 µM,1.45 µM
8 mL/min/g,78.1%,0.32 µM,4%,2.89 h,31%,8%,13%,,,C[C@H]1CC[C@@H](c2nc3cccc(C#Cc4cccnc4)c3c(=O)n2-c2ccccc2)N1c1nc(N)nc(N)c1C#N,0.69 µM,0.24 µM
,,0.58 µM,4%,,14%,66%,43%,-8%,1%,C[C@H]1CC[C@@H](c2nc3cccc(Cl)c3c(=O)n2-c2cc(F)cc(F)c2)N1c1nc(N)nc(N)c1C#N,1.17 µM,0.36 µM
13.8 mL/min/g,64.7%,0.42 µM,-8%,1.67 h,12%,-1%,20%,,,C[C@H]1CC[C@@H](c2nc3cccc(-c4cnn(C)c4)c3c(=O)n2-c2ccccc2)N1c1nc(N)nc(N)c1C#N,0.68 µM,0.3 µM

# From ChEMBL document CHEMBL5120922, “Discovery, Optimization, and Evaluation of Potent and Selective PI3Kδ-γ Dual Inhibitors for the Treatment of B-cell Malignancies” (J Med Chem, 2022)
